Assay results reported in ChEMBL document CHEMBL6120974, “Hydrazide-Based Class I Selective HDAC Inhibitors Completely Reverse Chemoresistance Synergistically in Platinum-Resistant Solid Cancer Cells” (J Med Chem, 2024).
The source made the active and inactive calls. The calls are words filed in the database; no cut-off is given here.

Experiments:
[1] = target: Histone deacetylase 1 (Homo sapiens, UniProt Q13547); experiment: (§1) Inhibition of C-terminal 6-his/FLAG tagged full length human recombinant HDAC1 (1 to 482 end residues) expressed in sf9 cells at 10 uM using ZMAL (Z-Lys(Ac)-AMC as fluorogenic substrate preincubated with compound for 60 mins followed by substrate addition and measured after 90 mins by fluorescence based microplate reader analysis relative to control; details: time 150.0 min
[2] = target: T1, Histone deacetylase 3/Nuclear receptor corepressor 2 (HDAC3/NCoR2) (Homo sapiens) (UniProt O15379+Q9Y618); experiment: as §1, with “His” for “6-his/FLAG”, “tagged” for “tagged full length”, “HDAC3” for “HDAC1”, “428” for “482”, “residues)/N-terminal GST-tagged human NcoR2” for “residues)”; details: time 150.0 min
[3] = tested on: A2780cisR; experiment: Cytotoxicity against cisplatin resistant human A2780 cisR cells at < 100 uM assessed as reduction in cell viability incubated for 72 hrs by MTT assay; format: functional, cell-based
[4] = cells; details: Homo sapiens, A2780
Description: Inhibition of class I/6 HDAC (unknown origin) in human A2780 cells using Boc-Lys(epsilon-Ac)-AMC as substrate preincubated with compound for 18 hrs followed by substrate addition and measured after 3 hrs by NOVOstar microplate reader analysis

[5] = cells; details: Homo sapiens, CAL-27
Description: Inhibition of class I/6 HDAC (unknown origin) in human CAL-27 cells using Boc-Lys(epsilon-Ac)-AMC as substrate preincubated with compound for 18 hrs followed by substrate addition and measured after 3 hrs by NOVOstar microplate reader analysis

[6] = target: T2, Histone deacetylase 8 (Homo sapiens) (UniProt Q9BY41); experiment: Inhibition of recombinant HDAC8 (unknown origin) at > 10 uM using Bos-Lys(TFA)-AMC as substrate preincubated with compound for 5 mins and measured after 90 mins by NOVOstar microplate reader analysis relative to control; details: time 95.0 min
T2 sequence (whole entry): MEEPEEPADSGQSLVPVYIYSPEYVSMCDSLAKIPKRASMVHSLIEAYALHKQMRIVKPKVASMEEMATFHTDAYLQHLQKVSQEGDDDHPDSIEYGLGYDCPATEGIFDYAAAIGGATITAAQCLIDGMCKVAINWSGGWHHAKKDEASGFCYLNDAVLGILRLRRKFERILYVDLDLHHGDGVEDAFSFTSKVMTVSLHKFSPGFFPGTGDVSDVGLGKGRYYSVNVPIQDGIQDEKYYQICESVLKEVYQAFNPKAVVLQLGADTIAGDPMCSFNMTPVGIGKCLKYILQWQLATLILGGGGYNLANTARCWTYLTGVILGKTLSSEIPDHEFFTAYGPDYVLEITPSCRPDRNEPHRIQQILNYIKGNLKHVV

[7] = cells; details: Homo sapiens, A2780cisR
Description: Inhibition of class I/6 HDAC (unknown origin) in cisplatin resistant human A2780 cisR cells using Boc-Lys(epsilon-Ac)-AMC as substrate preincubated with compound for 18 hrs followed by substrate addition and measured after 3 hrs by NOVOstar microplate reader analysis

[8] = target: T3, Protein deacetylase HDAC6 (Homo sapiens) (UniProt Q9UBN7); experiment: as §1, with “N-terminal GST-tagged” for “C-terminal 6-his/FLAG tagged”, “length recombinant” for “length”, “HDAC6” for “recombinant HDAC1”, “1215” for “482”; details: time 150.0 min
T3 sequence (whole entry): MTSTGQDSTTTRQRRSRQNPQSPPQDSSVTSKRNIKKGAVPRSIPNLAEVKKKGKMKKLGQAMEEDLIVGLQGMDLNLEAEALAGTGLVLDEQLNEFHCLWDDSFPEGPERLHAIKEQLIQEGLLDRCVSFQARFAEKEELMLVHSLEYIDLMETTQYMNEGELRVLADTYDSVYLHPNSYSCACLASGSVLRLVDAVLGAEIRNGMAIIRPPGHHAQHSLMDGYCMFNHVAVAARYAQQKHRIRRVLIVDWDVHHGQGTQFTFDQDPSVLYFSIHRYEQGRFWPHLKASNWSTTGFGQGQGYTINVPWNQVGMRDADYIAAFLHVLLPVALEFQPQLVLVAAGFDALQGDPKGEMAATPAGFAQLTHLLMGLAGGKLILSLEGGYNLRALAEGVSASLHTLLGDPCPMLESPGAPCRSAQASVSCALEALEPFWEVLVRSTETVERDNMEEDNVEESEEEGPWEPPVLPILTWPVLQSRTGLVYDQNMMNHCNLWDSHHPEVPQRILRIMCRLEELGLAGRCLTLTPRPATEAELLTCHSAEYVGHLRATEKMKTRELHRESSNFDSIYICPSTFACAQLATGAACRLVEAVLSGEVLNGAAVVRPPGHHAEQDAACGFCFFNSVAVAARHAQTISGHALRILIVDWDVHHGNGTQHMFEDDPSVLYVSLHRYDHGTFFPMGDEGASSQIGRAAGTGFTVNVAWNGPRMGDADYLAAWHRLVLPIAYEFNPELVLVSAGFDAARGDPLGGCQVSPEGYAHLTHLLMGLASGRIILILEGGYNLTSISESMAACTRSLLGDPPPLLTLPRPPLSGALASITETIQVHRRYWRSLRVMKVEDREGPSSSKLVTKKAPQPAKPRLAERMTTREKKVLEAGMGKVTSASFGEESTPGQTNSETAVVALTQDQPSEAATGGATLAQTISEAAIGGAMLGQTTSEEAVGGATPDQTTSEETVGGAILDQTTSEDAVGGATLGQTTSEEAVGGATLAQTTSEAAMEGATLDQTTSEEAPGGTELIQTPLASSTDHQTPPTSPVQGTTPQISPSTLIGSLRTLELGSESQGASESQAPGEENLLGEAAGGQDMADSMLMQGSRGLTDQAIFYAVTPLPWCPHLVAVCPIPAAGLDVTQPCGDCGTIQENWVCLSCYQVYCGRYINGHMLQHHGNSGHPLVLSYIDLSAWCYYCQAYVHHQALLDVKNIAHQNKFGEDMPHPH

[9] = target: Histone deacetylase 2 (Homo sapiens) (UniProt Q92769); experiment: as §1, with “FLAG” for “6-his/FLAG”, “HDAC2” for “HDAC1”, “488” for “482”; details: time 150.0 min
[10] = target: T4, Histone deacetylase 8 (Homo sapiens, UniProt Q9BY41); experiment: Inhibition of recombinant HDAC8 (unknown origin) using Bos-Lys(TFA)-AMC as substrate preincubated with compound for 5 mins and measured after 90 mins by NOVOstar microplate reader analysis
T4 sequence (Q9BY41 whole entry): T2 sequence (whole entry)

[11] = tested on: CAL-27; experiment: cells; details: Homo sapiens, CAL-27, 72 h
Description: Cytotoxicity against human CAL-27 cells assessed as reduction in cell viability incubated for 72 hrs by MTT assay

[12] = target: Histone deacetylase 4 (Homo sapiens, UniProt P56524); experiment: Inhibition of recombinant HDAC4 (unknown origin) using Bos-Lys(TFA)-AMC as substrate preincubated with compound for 5 mins and measured after 90 mins by NOVOstar microplate reader analysis
[13] = tested on: Cal27CisR; experiment: Cytotoxicity against cisplatin resistant human Cal27CisR cells at < 10 uM assessed as reduction in cell viability incubated for 72 hrs by MTT assay; format: functional, cell-based
[14] = tested on: A2780; experiment: Cytotoxicity against human A2780 cells at < 100 uM assessed as reduction in cell viability incubated for 72 hrs by MTT assay; format: functional, cell-based
[15] = cells; details: Homo sapiens, Cal27CisR
Description: Inhibition of class I/6 HDAC (unknown origin) in cisplatin resistant human Cal27CisR cells using Boc-Lys(epsilon-Ac)-AMC as substrate preincubated with compound for 18 hrs followed by substrate addition and measured after 3 hrs by NOVOstar microplate reader analysis

[16] = target: Histone deacetylase 3/Nuclear receptor corepressor 2 (HDAC3/NCoR2) (Homo sapiens, UniProt O15379); format: cell-based, Sf9
[17] = tested on: A2780cisR; experiment: cells; details: Homo sapiens, 72 h
[18] = target: T3, Protein deacetylase HDAC6 (Homo sapiens); experiment: (§2) Inhibition of N-terminal GST-tagged full length recombinant human HDAC6 (1 to 1215 end residues) expressed in sf9 cells at > 10 uM using ZMAL (Z-Lys(Ac)-AMC as fluorogenic substrate preincubated with compound for 60 mins followed by substrate addition and measured after 90 mins by fluorescence based microplate reader analysis relative to control; details: time 150.0 min
[19] = cells; details: Homo sapiens, Cal27CisR, 72 h
Description: Cytotoxicity against cisplatin resistant human Cal27CisR cells assessed as reduction in cell viability incubated for 72 hrs by MTT assay

[20] = tested on: A2780; experiment: cells; details: Homo sapiens, A2780, 72 h
Description: Cytotoxicity against human A2780 cells assessed as reduction in cell viability incubated for 72 hrs by MTT assay

[21] = target: T5, Protein deacetylase HDAC6 (Homo sapiens, UniProt Q9UBN7); experiment: as §2, with “cells” for “cells at > 10 uM”, “analysis” for “analysis relative to control”
T5 sequence (Q9UBN7 whole entry): T3 sequence (whole entry)

[22] = cells; details: Homo sapiens, A2780; remark: listed apart in the source
Description: Inhibition of class IIa/8 HDAC (unknown origin) in human A2780 cells using Boc-Lys(TFA)-AMC as substrate preincubated with compound for 18 hrs followed by substrate addition and measured after 3 hrs by NOVOstar microplate reader analysis

[23] = cells; details: Homo sapiens, CAL-27; remark: listed apart in the source
Description: Inhibition of class IIa/8 HDAC (unknown origin) in human CAL-27 cells using Boc-Lys(TFA)-AMC as substrate preincubated with compound for 18 hrs followed by substrate addition and measured after 3 hrs by NOVOstar microplate reader analysis

[24] = cells; details: Homo sapiens, A2780cisR; remark: listed apart in the source
Description: Inhibition of class IIa/8 HDAC (unknown origin) in cisplatin resistant human A2780 cisR cells using Boc-Lys(TFA)-AMC as substrate preincubated with compound for 18 hrs followed by substrate addition and measured after 3 hrs by NOVOstar microplate reader analysis

[25] = cells; details: Homo sapiens, Cal27CisR; remark: listed apart in the source
Description: Inhibition of class IIa/8 HDAC (unknown origin) in cisplatin resistant human Cal27CisR cells using Boc-Lys(TFA)-AMC as substrate preincubated with compound for 18 hrs followed by substrate addition and measured after 3 hrs by NOVOstar microplate reader analysis

[26] = target: T1, Histone deacetylase 3/Nuclear receptor corepressor 2 (HDAC3/NCoR2) (Homo sapiens); experiment: Inhibition of C-terminal His tagged human recombinant HDAC3 (1 to 428 end residues)/N-terminal GST-tagged human NcoR2 expressed in sf9 cells at > 10 uM using ZMAL (Z-Lys(Ac)-AMC as fluorogenic substrate preincubated with compound for 60 mins followed by substrate addition and measured after 90 mins by fluorescence based microplate reader analysis relative to control; details: time 150.0 min
[27] = tested on: CAL-27; experiment: Cytotoxicity against human CAL-27 cells at < 100 uM assessed as reduction in cell viability incubated for 72 hrs by MTT assay; format: functional, cell-based
[28] = tested on: A2780 cisR; experiment: Inhibition of class I/6 HDAC (unknown origin) in cisplatin resistant human A2780 cisR cells at < 100 uM using Boc-Lys(epsilon-Ac)-AMC as substrate preincubated with compound for 18 hrs followed by substrate addition and measured after 3 hrs by NOVOstar microplate reader analysis; format: cell-based
[29] = tested on: A2780; experiment: Inhibition of class I/6 HDAC (unknown origin) in human A2780 cells at < 100 uM using Boc-Lys(epsilon-Ac)-AMC as substrate preincubated with compound for 18 hrs followed by substrate addition and measured after 3 hrs by NOVOstar microplate reader analysis; format: cell-based

Chain of Histone deacetylase 3/Nuclear receptor corepressor 2 (HDAC3/NCoR2) (O15379 whole entry): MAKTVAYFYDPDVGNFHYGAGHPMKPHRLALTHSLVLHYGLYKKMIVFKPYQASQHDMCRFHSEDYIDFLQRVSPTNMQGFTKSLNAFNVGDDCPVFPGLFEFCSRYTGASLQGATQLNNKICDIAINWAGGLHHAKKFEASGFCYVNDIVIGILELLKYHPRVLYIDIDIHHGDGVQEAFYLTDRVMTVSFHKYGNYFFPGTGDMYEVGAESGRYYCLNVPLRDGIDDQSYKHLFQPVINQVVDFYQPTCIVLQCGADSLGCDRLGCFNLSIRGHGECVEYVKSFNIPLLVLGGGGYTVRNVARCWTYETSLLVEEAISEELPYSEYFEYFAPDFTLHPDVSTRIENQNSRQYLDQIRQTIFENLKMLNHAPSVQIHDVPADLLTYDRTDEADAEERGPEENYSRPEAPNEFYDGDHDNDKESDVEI
Chain of Histone deacetylase 3/Nuclear receptor corepressor 2 (HDAC3/NCoR2) (Q9Y618 whole entry, further chain): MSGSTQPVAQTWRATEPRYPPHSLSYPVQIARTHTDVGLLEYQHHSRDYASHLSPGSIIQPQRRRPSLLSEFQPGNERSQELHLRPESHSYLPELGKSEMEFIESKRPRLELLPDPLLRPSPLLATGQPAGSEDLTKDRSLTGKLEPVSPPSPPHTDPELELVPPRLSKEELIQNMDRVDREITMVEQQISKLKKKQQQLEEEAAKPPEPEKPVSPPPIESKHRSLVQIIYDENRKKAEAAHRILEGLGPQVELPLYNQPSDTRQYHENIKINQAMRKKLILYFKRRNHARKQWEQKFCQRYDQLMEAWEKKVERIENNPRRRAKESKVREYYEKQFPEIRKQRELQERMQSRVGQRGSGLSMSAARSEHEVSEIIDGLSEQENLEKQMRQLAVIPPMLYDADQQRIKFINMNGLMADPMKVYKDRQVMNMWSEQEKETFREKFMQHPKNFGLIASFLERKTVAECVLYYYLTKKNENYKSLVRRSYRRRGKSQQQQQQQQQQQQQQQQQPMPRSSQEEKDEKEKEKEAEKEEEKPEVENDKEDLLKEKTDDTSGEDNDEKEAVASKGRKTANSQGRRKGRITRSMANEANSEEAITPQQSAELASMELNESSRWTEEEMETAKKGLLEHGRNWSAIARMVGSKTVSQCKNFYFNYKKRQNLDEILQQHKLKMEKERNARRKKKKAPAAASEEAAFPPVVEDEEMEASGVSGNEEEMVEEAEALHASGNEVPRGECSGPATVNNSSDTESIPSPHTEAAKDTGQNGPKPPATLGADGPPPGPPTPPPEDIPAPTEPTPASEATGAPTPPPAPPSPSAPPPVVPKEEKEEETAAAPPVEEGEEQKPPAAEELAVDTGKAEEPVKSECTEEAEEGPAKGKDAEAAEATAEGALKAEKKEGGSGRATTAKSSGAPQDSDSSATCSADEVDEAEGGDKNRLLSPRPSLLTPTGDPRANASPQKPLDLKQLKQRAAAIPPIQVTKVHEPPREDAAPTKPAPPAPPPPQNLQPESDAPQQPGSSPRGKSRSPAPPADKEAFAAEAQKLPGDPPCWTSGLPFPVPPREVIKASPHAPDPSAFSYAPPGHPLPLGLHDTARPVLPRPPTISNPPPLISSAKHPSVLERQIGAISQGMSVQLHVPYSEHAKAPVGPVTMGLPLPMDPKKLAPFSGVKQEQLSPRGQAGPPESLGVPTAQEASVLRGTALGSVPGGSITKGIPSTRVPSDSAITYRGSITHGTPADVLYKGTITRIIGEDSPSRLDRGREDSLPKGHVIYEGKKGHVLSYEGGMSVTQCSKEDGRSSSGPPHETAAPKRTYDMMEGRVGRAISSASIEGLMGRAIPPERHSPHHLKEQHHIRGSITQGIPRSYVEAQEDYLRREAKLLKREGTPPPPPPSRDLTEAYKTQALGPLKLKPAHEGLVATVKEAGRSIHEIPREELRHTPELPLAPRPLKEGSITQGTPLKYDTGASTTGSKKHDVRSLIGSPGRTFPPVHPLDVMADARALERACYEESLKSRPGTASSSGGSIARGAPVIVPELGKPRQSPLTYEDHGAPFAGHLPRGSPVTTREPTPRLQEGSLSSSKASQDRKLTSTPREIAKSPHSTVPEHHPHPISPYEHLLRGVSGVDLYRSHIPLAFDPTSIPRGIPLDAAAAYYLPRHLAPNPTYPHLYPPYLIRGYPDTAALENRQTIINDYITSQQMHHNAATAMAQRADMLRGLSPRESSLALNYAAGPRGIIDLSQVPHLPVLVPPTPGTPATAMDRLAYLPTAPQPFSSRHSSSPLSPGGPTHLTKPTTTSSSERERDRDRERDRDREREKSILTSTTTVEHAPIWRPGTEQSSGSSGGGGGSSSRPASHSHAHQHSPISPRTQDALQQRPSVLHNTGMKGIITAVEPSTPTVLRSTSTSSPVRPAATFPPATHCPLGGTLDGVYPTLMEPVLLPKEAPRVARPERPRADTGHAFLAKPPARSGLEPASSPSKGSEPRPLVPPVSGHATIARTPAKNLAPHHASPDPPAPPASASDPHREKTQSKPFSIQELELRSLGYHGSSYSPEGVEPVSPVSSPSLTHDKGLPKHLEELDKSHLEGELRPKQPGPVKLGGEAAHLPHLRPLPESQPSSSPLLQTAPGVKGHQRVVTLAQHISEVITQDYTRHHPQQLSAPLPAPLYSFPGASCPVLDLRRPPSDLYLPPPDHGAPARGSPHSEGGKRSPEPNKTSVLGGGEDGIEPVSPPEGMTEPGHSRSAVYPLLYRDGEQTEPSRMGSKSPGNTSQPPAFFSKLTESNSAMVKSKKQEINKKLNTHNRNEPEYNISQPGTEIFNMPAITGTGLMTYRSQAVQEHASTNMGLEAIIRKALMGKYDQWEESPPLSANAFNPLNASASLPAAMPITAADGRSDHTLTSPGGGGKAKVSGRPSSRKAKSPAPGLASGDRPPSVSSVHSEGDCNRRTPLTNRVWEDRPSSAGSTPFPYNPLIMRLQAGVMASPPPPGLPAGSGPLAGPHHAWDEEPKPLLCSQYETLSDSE
Chain of Histone deacetylase 4 (P56524 whole entry): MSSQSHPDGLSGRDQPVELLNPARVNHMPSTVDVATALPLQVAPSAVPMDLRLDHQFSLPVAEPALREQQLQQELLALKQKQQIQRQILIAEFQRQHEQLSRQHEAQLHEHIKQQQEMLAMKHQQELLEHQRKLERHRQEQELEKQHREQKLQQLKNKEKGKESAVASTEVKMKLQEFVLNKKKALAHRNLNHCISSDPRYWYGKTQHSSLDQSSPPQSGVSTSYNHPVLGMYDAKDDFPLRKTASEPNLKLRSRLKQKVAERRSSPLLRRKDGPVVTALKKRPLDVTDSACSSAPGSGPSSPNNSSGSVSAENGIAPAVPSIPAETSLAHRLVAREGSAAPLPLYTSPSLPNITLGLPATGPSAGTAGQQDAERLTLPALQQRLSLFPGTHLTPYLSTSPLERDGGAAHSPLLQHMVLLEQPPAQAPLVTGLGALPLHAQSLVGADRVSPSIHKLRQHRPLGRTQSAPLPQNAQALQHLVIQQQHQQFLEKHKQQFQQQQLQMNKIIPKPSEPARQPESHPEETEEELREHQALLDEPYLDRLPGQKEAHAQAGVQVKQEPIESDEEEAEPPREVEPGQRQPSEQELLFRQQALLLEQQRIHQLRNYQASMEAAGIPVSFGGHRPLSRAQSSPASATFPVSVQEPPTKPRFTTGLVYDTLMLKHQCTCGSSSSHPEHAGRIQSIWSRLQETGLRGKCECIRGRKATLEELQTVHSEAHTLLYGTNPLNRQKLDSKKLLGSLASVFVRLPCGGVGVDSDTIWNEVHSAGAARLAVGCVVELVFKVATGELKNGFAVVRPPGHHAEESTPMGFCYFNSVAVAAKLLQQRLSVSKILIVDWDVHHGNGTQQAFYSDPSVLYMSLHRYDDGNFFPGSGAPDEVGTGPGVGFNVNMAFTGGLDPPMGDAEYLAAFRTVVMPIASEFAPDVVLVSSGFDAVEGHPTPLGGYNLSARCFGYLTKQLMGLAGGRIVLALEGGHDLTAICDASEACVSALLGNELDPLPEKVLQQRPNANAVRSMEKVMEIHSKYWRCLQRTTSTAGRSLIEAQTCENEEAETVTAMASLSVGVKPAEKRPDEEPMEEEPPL
Chain of Histone deacetylase 1 (Q13547 whole entry): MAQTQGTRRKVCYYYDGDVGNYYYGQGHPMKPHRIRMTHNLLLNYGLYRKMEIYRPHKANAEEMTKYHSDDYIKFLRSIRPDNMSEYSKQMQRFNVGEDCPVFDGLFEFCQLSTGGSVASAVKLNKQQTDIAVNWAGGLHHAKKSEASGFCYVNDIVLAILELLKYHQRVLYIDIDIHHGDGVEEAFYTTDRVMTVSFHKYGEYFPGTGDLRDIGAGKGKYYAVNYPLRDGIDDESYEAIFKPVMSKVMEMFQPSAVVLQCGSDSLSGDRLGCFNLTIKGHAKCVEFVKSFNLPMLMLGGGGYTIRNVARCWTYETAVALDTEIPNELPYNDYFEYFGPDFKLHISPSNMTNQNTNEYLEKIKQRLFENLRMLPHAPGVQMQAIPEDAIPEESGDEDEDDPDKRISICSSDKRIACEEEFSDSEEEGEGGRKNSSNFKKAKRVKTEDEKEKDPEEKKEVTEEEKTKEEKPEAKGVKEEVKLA
Chain of Histone deacetylase 2 (Homo sapiens) (Q92769 whole entry): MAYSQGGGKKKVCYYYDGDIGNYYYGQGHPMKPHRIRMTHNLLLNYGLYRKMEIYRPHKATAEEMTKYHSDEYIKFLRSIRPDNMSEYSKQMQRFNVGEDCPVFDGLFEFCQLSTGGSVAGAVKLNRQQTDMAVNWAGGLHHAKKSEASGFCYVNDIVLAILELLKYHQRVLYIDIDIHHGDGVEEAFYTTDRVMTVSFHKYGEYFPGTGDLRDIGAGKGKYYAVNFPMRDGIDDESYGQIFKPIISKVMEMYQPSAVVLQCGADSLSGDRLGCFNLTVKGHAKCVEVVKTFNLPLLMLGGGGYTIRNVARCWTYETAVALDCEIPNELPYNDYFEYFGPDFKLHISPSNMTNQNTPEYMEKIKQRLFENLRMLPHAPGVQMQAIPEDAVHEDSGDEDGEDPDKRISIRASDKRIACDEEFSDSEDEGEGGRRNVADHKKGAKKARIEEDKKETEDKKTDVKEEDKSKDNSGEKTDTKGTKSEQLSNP

Row | SMILES | inhibition [1] [%] | Activity [3] | IC50 [4] [µM] | IC50 [5] [µM] | inhibition [6] [%] | IC50 [7] [µM] | inhibition [9] [%] | IC50 [10] [µM] | IC50 [11] [µM] | IC50 [12] [µM] | Activity [13] | Activity [14] | IC50 [15] [µM] | IC50 [16] [µM] | IC50 [17] [µM] | inhibition [18] [%] | IC50 [19] [µM] | IC50 [20] [µM] | IC50 [21] [µM] | also measured
1 | CN(C)c1ccc(C(=O)N(CC(=O)NCc2ccccc2)Cc2ccc(C(=O)NN)cc2)cc1 | 62 | inactive | 33.1 | 30.9 | < 25 | 37.7 | 53 | > 10 | 63.5 | > 10 | inactive | inactive | 35.9 | – | – | – | – | – | – | inhibition [2]: 57%; inhibition [8]: 55%
2 | CN(C)c1ccc(C(=O)N(CC(=O)NCc2ccccc2)Cc2ccc(C(=O)NNCCC(F)(F)F)cc2)cc1 | – | – | 0.691 | 0.379 | < 25 | 0.91 | – | > 10 | 2.2 | > 10 | – | – | 0.385 | 0.037 | 8.05 | < 25 | 3.14 | 2.25 | > 10 | –
3 | CN(C)c1ccc(C(=O)N(CC(=O)NCc2ccccc2)Cc2ccc(C(=O)NNc3ccccc3)cc2)cc1 | – | inactive | 27.7 | 21.5 | < 25 | 36 | – | > 10 | 60.8 | > 10 | inactive | inactive | 24.3 | 3.82 | – | < 25 | – | – | > 10 | –
4 | CN(C)c1ccc(C(=O)N(CC(=O)NCc2ccccc2)Cc2ccc(C(=O)Nc3ccccc3N)cc2)cc1 | – | – | 1.22 | 0.327 | – | 1.63 | – | > 10 | 2 | > 10 | – | – | 0.491 | – | 8.28 | – | 2.63 | 4.33 | > 10 | IC50 [22]: 49.8 µM; IC50 [23]: 9.34 µM; IC50 [24]: 47.6 µM; IC50 [25]: 6.47 µM
5 | CN(C)c1ccc(C(=O)N(CC(=O)NCc2ccccc2)Cc2ccc(C(=O)NNCCC(C)(C)C)cc2)cc1 | 63 | inactive | – | 83.4 | < 25 | – | 46 | > 10 | – | > 10 | inactive | – | 43.6 | > 10 | – | < 25 | – | 70.2 | > 10 | inhibition [26]: < 25%; Activity [27]: inactive; inhibition [28]: inactive; inhibition [29]: inactive
